Consider 28 molecules from patent US8129417B2, “Substituted octahydrocyclopenta[C]pyrrol-4-amines as calcium channel blockers” (Abbott Laboratories, priority 2008, dated 2012).

human Cav2.2, sequence (Q00975 whole entry): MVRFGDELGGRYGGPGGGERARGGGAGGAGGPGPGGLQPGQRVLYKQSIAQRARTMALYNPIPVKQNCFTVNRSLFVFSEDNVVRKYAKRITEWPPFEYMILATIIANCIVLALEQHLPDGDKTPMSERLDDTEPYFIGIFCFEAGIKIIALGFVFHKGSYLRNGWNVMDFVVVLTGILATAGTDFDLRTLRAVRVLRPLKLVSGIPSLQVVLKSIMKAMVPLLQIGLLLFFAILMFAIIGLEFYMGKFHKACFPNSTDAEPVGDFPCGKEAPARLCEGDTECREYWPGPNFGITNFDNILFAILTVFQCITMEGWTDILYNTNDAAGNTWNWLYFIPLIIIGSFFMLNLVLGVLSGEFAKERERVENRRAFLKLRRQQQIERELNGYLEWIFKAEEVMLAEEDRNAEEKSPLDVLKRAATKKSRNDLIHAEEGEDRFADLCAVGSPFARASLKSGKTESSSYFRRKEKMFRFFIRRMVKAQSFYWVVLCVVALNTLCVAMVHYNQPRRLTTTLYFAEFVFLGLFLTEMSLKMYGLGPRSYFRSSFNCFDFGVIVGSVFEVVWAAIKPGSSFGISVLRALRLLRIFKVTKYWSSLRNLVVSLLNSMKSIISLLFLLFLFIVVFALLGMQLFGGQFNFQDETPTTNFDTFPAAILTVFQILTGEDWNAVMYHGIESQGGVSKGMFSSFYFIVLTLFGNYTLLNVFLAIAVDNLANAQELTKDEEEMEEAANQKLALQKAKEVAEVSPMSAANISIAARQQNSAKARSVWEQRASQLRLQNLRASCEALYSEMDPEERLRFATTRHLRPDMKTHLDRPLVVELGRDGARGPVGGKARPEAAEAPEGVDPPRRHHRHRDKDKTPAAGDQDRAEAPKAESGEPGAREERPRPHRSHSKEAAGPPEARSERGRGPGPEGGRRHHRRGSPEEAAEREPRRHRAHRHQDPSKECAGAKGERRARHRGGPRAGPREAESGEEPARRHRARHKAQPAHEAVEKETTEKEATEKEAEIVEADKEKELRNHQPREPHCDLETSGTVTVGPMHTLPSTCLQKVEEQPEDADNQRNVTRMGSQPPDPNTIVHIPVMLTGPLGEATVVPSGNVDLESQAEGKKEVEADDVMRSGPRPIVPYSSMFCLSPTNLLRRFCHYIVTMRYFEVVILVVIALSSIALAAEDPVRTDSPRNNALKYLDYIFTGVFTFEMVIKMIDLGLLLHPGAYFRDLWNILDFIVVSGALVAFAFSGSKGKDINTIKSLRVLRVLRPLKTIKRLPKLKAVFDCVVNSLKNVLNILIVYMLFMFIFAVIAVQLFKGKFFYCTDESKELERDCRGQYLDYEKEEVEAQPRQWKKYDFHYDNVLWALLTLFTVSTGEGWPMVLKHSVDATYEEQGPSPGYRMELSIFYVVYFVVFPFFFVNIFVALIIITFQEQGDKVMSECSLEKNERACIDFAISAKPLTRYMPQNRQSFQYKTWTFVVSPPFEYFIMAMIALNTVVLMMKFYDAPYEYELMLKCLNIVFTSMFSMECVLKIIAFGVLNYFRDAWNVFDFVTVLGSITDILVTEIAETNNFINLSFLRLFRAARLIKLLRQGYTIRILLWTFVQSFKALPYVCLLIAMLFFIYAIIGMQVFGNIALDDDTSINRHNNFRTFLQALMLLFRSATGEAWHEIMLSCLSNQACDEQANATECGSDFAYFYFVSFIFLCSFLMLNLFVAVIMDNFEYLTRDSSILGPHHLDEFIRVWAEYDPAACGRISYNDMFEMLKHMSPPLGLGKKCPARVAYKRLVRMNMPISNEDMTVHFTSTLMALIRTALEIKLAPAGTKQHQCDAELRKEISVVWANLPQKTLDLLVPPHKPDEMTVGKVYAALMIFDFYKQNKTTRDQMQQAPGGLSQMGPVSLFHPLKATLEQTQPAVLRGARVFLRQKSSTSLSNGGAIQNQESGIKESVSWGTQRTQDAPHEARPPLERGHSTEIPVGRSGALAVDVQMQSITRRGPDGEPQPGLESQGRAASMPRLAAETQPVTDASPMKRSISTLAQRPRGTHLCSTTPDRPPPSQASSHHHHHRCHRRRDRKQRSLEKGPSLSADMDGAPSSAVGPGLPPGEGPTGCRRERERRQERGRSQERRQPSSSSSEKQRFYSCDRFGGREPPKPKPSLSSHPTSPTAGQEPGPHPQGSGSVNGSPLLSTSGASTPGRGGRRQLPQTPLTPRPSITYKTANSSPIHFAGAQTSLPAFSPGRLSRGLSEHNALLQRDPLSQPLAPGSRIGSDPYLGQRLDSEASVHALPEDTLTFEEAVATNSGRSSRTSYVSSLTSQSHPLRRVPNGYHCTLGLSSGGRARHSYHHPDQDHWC
human Cav2.2, sequence (P54289 25-946 partner limits assumed): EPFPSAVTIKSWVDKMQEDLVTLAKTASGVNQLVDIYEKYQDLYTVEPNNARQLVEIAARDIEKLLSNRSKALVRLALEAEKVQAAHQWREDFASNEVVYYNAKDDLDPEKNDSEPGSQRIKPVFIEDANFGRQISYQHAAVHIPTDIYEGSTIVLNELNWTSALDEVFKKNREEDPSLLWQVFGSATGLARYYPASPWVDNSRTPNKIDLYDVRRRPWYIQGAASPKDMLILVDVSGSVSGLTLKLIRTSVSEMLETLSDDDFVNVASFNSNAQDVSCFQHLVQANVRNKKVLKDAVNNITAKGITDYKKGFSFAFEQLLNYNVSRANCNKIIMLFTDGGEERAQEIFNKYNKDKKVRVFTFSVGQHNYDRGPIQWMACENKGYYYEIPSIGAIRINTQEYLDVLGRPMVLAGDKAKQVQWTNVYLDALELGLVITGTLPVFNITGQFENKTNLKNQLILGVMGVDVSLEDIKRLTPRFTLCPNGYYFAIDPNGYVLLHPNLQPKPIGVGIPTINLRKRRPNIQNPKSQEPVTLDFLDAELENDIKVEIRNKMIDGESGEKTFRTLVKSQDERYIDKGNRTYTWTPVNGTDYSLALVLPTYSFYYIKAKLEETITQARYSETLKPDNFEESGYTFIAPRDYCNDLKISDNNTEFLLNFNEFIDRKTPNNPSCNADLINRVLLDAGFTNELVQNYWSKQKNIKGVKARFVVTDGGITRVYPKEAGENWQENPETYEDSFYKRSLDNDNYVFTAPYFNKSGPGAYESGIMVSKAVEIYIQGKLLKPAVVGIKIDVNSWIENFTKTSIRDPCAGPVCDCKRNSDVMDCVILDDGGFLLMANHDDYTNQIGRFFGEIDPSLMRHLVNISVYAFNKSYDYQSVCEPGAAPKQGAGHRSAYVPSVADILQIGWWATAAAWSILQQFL
human Cav2.2, sequence (P54289 947-1103 partner limits assumed): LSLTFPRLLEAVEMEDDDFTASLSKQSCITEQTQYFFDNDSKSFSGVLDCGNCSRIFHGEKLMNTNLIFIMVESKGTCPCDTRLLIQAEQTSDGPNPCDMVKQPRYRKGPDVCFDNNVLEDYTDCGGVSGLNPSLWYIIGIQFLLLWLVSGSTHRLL
human Cav2.2, sequence (P54284 whole entry partner): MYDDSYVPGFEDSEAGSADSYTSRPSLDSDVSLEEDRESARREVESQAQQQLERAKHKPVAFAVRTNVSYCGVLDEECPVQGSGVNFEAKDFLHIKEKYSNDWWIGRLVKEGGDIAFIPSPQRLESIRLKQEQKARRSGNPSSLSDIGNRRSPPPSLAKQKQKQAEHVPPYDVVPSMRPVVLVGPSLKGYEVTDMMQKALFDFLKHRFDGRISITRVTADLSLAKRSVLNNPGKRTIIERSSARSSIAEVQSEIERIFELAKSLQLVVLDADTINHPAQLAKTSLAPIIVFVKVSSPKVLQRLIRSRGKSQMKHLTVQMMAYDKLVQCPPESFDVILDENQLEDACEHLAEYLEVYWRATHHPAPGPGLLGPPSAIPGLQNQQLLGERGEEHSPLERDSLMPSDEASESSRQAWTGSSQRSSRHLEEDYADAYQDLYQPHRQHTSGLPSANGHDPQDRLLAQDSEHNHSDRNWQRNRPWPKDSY

The first test addresses human Cav2.2 (Homo sapiens, UniProt Q00975). Description: Assessment of calcium channel activity using FLIPR (Ca2+ influx in IMR32 cells). The class given is cell-based. Particulars: 3 minute pre-incubation with compound (*), 2 μM nifedipine, depolarized with 80 mM KCl. The method, then: (i) In Vitro Methods—Assessment of Calcium Channel Activity Using FLIPR:
The IMR32 cells were maintained in MEM media containing 10% (v/v) FBS, 1% (v/v) antibiotic/antimitotic, 1% (v/v) sodium pyruvate and 1% (v/v) MEM NEAA. Following dissociation in 0.05% (v/v) trypsin/EDTA, cells were seeded into black 1×96-well plates (Corning Cellbind) at a density of 1-1.2×10^5 cells/well and incubated in the maintenance media above for 48 hours at 37° C. […] To determine the IC50 values, the percent inhibition of the compound at each concentration was determined relative to the activity in the absence of inhibitor, and data was fitted using non-linear regression sigmoidal dose response curve analysis with GraphPad Prism®.
On to `O=C(N[C@@H]1CC[C@H]2CN(Cc3ccccc3)C[C@H]21)C1(c2ccccc2)CCCCC1` (relative stereo) [Example 10, N-[(3aS*,4R*,6aR*)-2-benzyloctahydrocyclopenta[c]pyrrol-4-yl]-1-phenylcyclohexanecarboxamide], for which the IC50 worked out at 1300 nM.
Still for that read-out and setting: as for `CCC(CC)C(C(=O)N[C@H]1CC[C@@H]2CN(Cc3ccccc3)C[C@@H]21)c1ccccc1` (stereo partly drawn) [Example 44, N-[(3aR,4S,6aS)-2-benzyloctahydrocyclopenta[c]pyrrol-4-yl]-3-ethyl-2-phenylpentanamide], the figure is 1700 nM; as for `CCCC(CCC)C(=O)N[C@@H]1CC[C@H]2CN(Cc3ccccc3)C[C@H]21` [Example 21, N-[(3aS,4R,6aR)-2-benzyloctahydrocyclopenta[c]pyrrol-4-yl]-2-propylpentanamide], 10100 nM.
On the same count and under the same terms, as for `CC(C)(C)C(Cc1ccccc1)C(=O)N[C@H]1CC[C@@H]2CN(Cc3ccccc3)C[C@@H]21` (stereo partly drawn) [Example 49, 2-benzyl-N-[(3aR,4S,6aS)-2-benzyloctahydrocyclopenta[c]pyrrol-4-yl]-3,3-dimethylbutanamide], the figure is 4600 nM; as for `O=C(N[C@H]1CC[C@@H]2CN(Cc3ccccc3)C[C@@H]21)C1(c2ccccc2)CCCCC1` [Example 46, N-[(3aR,4S,6aS)-2-benzyloctahydrocyclopenta[c]pyrrol-4-yl]-1-phenylcyclohexanecarboxamide], 3100 nM; as for `O=C(N[C@@H]1CC[C@H]2CN(Cc3ccccc3)C[C@H]21)C(Cc1ccccc1)c1ccccc1` (stereo partly drawn) [Example 25, N-[(3aS,4R,6aR)-2-benzyloctahydrocyclopenta[c]pyrrol-4-yl]-2,3-diphenylpropanamide], 3700 nM.

The test is the same for the next values; noted with them: 60 minute pre-incubation with compound, 2 μM nifedipine, depolarized with 80 mM KCl.
In the case of `O=C(N[C@H]1CC[C@H]2CN(S(=O)(=O)Cc3cccc(C(F)(F)F)c3)C[C@H]21)C(C1CCCCC1)C1CCCCC1` [Example 208, 2,2-dicyclohexyl-N-((3aS,4S,6aR)-2-{[3-(trifluoromethyl)benzyl]sulfonyl}octahydrocyclopenta[c]pyrrol-4-yl)acetamide], the IC50 was above 100000 nM.
Same read-out and setting: the value for `CCN[C@H]1CC[C@@H]2CN(S(=O)(=O)c3ccc(C(F)(F)F)cc3Cl)C[C@@H]21` [Example 293, (3aR,4S,6aS)-2-{[2-chloro-4-(trifluoromethyl)phenyl]sulfonyl}-N-ethyloctahydrocyclopenta[c]pyrrol-4-amine] was 4820 nM; that for `CC(C)C[C@@H](C(=O)N[C@@H]1CC[C@H]2CN(S(=O)(=O)c3ccc(F)cc3)C[C@H]21)N(C)C(=O)OC(C)(C)C` [Example 326, tert-butyl(S)-1-((3aS,4R,6aR)-2-(4-fluorophenylsulfonyl)octahydrocyclopenta[c]pyrrol-4-ylamino)-4-methyl-1-oxopentan-2-yl(methyl)carbamate] was 1460 nM; that for `CC(C)(C)OC(=O)N[C@H](C(=O)N[C@@H]1CC[C@H]2CN(Cc3ccccc3)C[C@H]21)C(C)(C)C` [Example 234, tert-butyl(S)-1-((3aS,4R,6aR)-2-benzyloctahydrocyclopenta[c]pyrrol-4-ylamino)-3,3-dimethyl-1-oxobutan-2-ylcarbamate] was 7400 nM.
The same measure, in the same setting: the value for `CC(C)N([C@H]1CC[C@@H]2CN(Cc3ccccc3)C[C@@H]21)S(=O)(=O)c1cccc(C(F)(F)F)c1` [Example 555, N-[(3aR,4S,6aS)-2-benzyloctahydrocyclopenta[c]pyrrol-4-yl]-N-isopropyl-3-(trifluoromethyl)benzenesulfonamide] was 2510 nM; that for `CN[C@@H](CC(C)C)C(=O)N[C@@H]1CC[C@H]2CN(Cc3ccc(C(F)(F)F)c(F)c3)C[C@H]21` [Example 374, N^1-{(3aS,4R,6aR)-2-[3-fluoro-4-(trifluoromethyl)benzyl]octahydrocyclopenta[c]pyrrol-4-yl}-N^2-methyl-L-leucinamide] was 5360 nM.
On the same count and under the same terms, as for `CN[C@H](C(=O)N[C@@H]1CC[C@H]2CN(Cc3cccc(C(F)(F)F)c3)C[C@H]21)C(C)C` [Example 373, N^2-methyl-N^1-{(3aS,4R,6aR)-2-[3-(trifluoromethyl)benzyl]octahydrocyclopenta[c]pyrrol-4-yl}-L-valinamide], the figure is 7580 nM; as for `CCC[C@@H](C(=O)N[C@H]1CC[C@@H]2CN(S(=O)(=O)c3cccc(C(F)(F)F)c3)C[C@@H]21)N(C)C(=O)OC(C)(C)C` [Example 278, tert-butyl methyl((S)-1-oxo-1-((3aR,4S,6aS)-2-(3-(trifluoromethyl)phenylsulfonyl)octahydrocyclopenta[c]pyrrol-4-ylamino)pentan-2-yl)carbamate], 340 nM; as for `CCC[C@H](NC)C(=O)N[C@H]1CC[C@@H]2CN(S(=O)(=O)c3ccc(F)cc3Cl)C[C@@H]21` [Example 539, N^1-{(3aR,4S,6aS)-2-[(2-chloro-4-fluorophenyl)sulfonyl]octahydrocyclopenta[c]pyrrol-4-yl}-N^2-methyl-L-norvalinamide], 4390 nM.
`CCC[C@H](N)C(=O)N[C@H]1CC[C@@H]2CN(S(=O)(=O)c3cccc(C(F)(F)F)c3)C[C@@H]21` [Example 424, N^1-((3aR,4S,6aS)-2-{[3-(trifluoromethyl)phenyl]sulfonyl}octahydrocyclopenta[c]pyrrol-4-yl)-L-norvalinamide]: the IC50 turned out to be 3110 nM.
Still for that read-out and setting: the value for `CN[C@@H](CC(C)C)C(=O)N[C@@H]1CC[C@H]2CN(Cc3ccc(F)c(C(F)(F)F)c3)C[C@H]21` [Example 375, N^1-{(3aS,4R,6aR)-2-[4-fluoro-3-(trifluoromethyl)benzyl]octahydrocyclopenta[c]pyrrol-4-yl}-N^2-methyl-L-leucinamide] was 8220 nM; that for `CC(C)(C)C[C@H](N)C(=O)N[C@H]1CC[C@@H]2CN(S(=O)(=O)c3cc(C(F)(F)F)ccc3Cl)C[C@@H]21` [Example 428, N^1-((3aR,4S,6aS)-2-{[2-chloro-5-(trifluoromethyl)phenyl]sulfonyl}octahydrocyclopenta[c]pyrrol-4-yl)-4-methyl-L-leucinamide] was 2310 nM; that for `CC(C)C[C@@H](C(=O)N[C@@H]1CC[C@H]2CN(S(=O)(=O)c3ccc(C(F)(F)F)cc3)C[C@H]21)N(C)C(=O)OC(C)(C)C` [Example 324, tert-butyl methyl((S)-4-methyl-1-oxo-1-((3aS,4R,6aR)-2-(4-(trifluoromethyl)phenylsulfonyl)octahydrocyclopenta[c]pyrrol-4-ylamino)pentan-2-yl)carbamate] was 690 nM.
The same measure, in the same setting: the value for `CCC(CC)C(=O)N[C@H]1CC[C@H]2CN(Cc3cccc(C(F)(F)F)c3)C[C@H]21` (relative stereo) [Example 125, 2-ethyl-N-{(3aS*,4S*,6aR*)-2-[3-(trifluoromethyl)benzyl]octahydrocyclopenta[c]pyrrol-4-yl}butanamide] was 2800 nM; that for `CC(C)C[C@@H](C(=O)N[C@@H]1CC[C@H]2CN(S(=O)(=O)c3cccc(C(F)(F)F)c3)C[C@H]21)N(C)C(=O)OC(C)(C)C` [Example 325, tert-butyl methyl((S)-4-methyl-1-oxo-1-((3aS,4R,6aR)-2-(3-(trifluoromethyl)phenylsulfonyl)octahydrocyclopenta[c]pyrrol-4-ylamino)pentan-2-yl)carbamate] was 250 nM; that for `CN(C(=O)OC(C)(C)C)C(Cc1ccccc1)C(=O)NC1CCC2CN(S(=O)(=O)c3cccc(C(F)(F)F)c3)CC21` [Example 270, N-(tert-butoxycarbonyl)-N-methyl-N-((3aR,4S,6aS)-2-{[3-(trifluoromethyl)phenyl]sulfonyl}octahydrocyclopenta[c]pyrrol-4-yl)-L-phenylalaninamide] was 770 nM.
In the case of `CN([C@H]1CC[C@@H]2CN(S(=O)(=O)c3ccc(C(F)(F)F)cc3)C[C@@H]21)S(=O)(=O)c1ccccc1[N+](=O)[O-]` [Example 300, N-methyl-2-nitro-N-((3aR,4S,6aS)-2-{[4-(trifluoromethyl)phenyl]sulfonyl}octahydrocyclopenta[c]pyrrol-4-yl)benzenesulfonamide], the 50% inhibitory concentration (IC50) turned out to be 1540 nM.
Take `O=C(N[C@@H]1CC[C@H]2CN(S(=O)(=O)c3cccc(C(F)(F)F)c3)C[C@H]21)[C@@H]1CCCCN1` [Example 398, (2S)—N-((3aS,4R,6aR)-2-{[3-(trifluoromethyl)phenyl]sulfonyl}octahydrocyclopenta[c]pyrrol-4-yl)piperidine-2-carboxamide]: the IC50 was determined as 3250 nM.
Still for that read-out and setting: as for `CC(C)C[C@H](NCC(C)(C)C)C(=O)N[C@H]1CC[C@@H]2CN(S(=O)(=O)c3cccc(C(F)(F)F)c3)C[C@@H]21` [Example 252, N^2-neopentyl-N^1-((3aR,4S,6aS)-2-{[3-(trifluoromethyl)phenyl]sulfonyl}octahydrocyclopenta[c]pyrrol-4-yl)-L-leucinamide], the figure is 640 nM; as for `CC(C)C[C@H](NC(=O)OC(C)(C)C)C(=O)N[C@@H]1CC[C@@H]2CN(Cc3cccc(C(F)(F)F)c3)C[C@@H]21` (relative stereo) [Example 137, N^2-(tert-butyloxycarbonyl)-N^1-{(3aR*,4R*,6aS*)-2-[3-(trifluoromethyl)benzyl]octahydrocyclopenta[c]pyrrol-4-yl}-L-leucinamide], 600 nM.

Still in this test, the particulars now being: IMR-32, @ 10 μM, 3 minute pre-incubation (*), read-out: percent inhibition.
Take `CC[C@H](C(=O)N[C@@H]1CC[C@@H]2CN([C@@H](C)c3ccccc3)C[C@@H]21)c1ccccc1` [Example 210, (2S)-2-phenyl-N-{(3aR,4R,6aS)-2-[(1S)-1-phenylethyl]octahydrocyclopenta[c]pyrrol-4-yl}butanamide]: the inhibition at 10 µM turned out to be 76%.
Still for that read-out and setting: the value for `O=C(N[C@H]1CC[C@@H]2CN(Cc3ccccc3)C[C@@H]21)C(c1ccccc1)C1CC1` (stereo partly drawn) [Example 41, N-[(3aR,4S,6aS)-2-benzyloctahydrocyclopenta[c]pyrrol-4-yl]-2-cyclopropyl-2-phenylacetamide] was 56%.
